This note sets out measurements from patent US5663151A, “Sulfated α-glycolipid derivatives as cell adhesion inhibitors” (Bristol-Myers Squibb Company, priority 1995, dated 1997).

The structures appear in SMILES notation. pIC50: −log10 of the molar value.

The target in test [1] is T1, P-selectin (Homo sapiens, UniProt P16109).
T1 construct: consists of the human lectin domain, the EGF domain, and two complement repeats of the human selectins; made in house
Briefly: P-selectin binding ELISA to immobilized sulfatides (cell free). Particulars: inhibition of P-selectin binding to immobilized sulfatide. Here is the method:
Based on the availability of soluble forms of P-selectin prepared as described by Aruffo, A., et al., Cell, 67, 35-44 (1991), a binding ELISA based assay modified from Foxall, et al., J., Cell Biol., 117, 895-902 (1992) was developed to measure inhibitors of P-selectin binding to immobilized sulfatides. Such inhibitors were tested in the assay described below.
0.1 ml of sulfatide (SIGMA) or lysosulfatide (SIGMA) each at 1 μg/ml in MeOH were added to the wells of a 96-well ELISA plate (ProBind, Falcon) and allowed to dry overnight at room temperature. The next day the antigen coated plates were blocked for 1.5 hours at room temperature with 5% BSA (ICN) in buffer containing 20 mM Hepes and 0.15M NaCl, pH 8.0. Wild type P-selectin and mutants thereof were first mixed with HRP-conjugated goat anti-human lgG (Fisher Scientific), serially diluted and then incubated for 30 minutes at 37° C. in buffer containing 20 mM Hepes, 0.15M NaCl, 1% BSA and 0.8 mM CaCl2, pH 8.0 prior to addition to the BSA blocked plates. Following the 30 minute preincubation, the fusion protein-HRP conjugate immunocomplexes were incubated on the blocked antigen coated plates for 45 minutes at 37° C. in the presence or absence of the test compounds and then washed to remove any unbound proteins. Bound complexes were detected by addition of substrate buffer (95 mM NaOAc.3H2 O, 5 mM citric acid monohydrate, 1.4 mM urea/H2O2) containing 3, 3', 5, 5' Tetramethylbenzidine (SIGMA). Reactions were stopped by the addition of 3N sulfuric acid and the absorbance read on an ELISA reader at dual wavelengths 450 and 630 nm. The efficacy of these compounds was compared to that of sulfatide (positive control) or to lysosulfatide (negative control). The data is obtained as percent inhibition of specific binding [formula] and a plot of dose vs. percent inhibition of Rg binding is generated in which IC50 (μM) is calculated and reported as cell free data in Table 1.

Test [2] has as its target T2, P-selectin Rg (Homo sapiens, UniProt P16109).
T2 construct: consists of the human lectin domain, the EGF domain, and two complement repeats of the human selectins; made in house
Briefly: HL-60 cell binding to P-selectin Rg. The format is cell-based. Particulars: HL-60 cells, binding to P-selectin Rg coated wells. Here is the method: 2. HL-60 Cell Binding to P- and E-Selectin RG
The chimeric P- and E-selectin receptor globulin (Rg) consists of the human lectin domain, the EGF domain, and two complement repeats of the human selectins fused to the hinge, CH1 and CH2 domains of human IgG1. These proteins were prepared as described by Aruffo, et al., Cell (1991) 67: 35-44; Walz, et al., Science (1990) 250, 1132-1135.
The HL-60 cell line, obtained from the American Type Culture Collection, ATCC No. CCL240, was employed to investigate P-selectin Rg binding. Assays were done in 96-well tissue culture dishes. The wells were first coated with 0.5 ug goat anti-human Fc antiserum overnight, and nonspecific binding sites were blocked by incubation of the wells with 1% nonfat dry milk in phosphate buffered saline (PBS containing 0.9 mM CaCl2 and 0.8 mM MgSO4) for 30 minutes. The Rg was then bound to the anti Fc-coated wells by incubating 50 ng in 50 ul of PBS for two hours. Cells, washed twice and resuspended in PBS to remove traces of medium components, were labeled with 10 uM calcein acetoxy methyl ester for 30 minutes at 3×10^7 cells per ml at room temperature. Serum-containing medium (RPMI with 20% fetal calf serum) was added, and the cells washed, followed by resuspension in PBS and a further spin. The labeled cells, resuspended in PBS, were added to twice washed Rg-containing wells at 200,000 per well. Following a 30 minute incubation with slow shaking, the wells were aspirated and washed three times with PBS to remove unbound cells. To certain wells were added known numbers of cells for determination of a standard curve of fluorescent units per cell. The fluorescence on the plate was quantitated using a fluorescent plate reader. Following subtraction of a blank representing the binding of cells to non-Rg containing wells (<5000 cells), the specific binding to P- or E- selectin was determined.
Inhibitors of cell binding
Test compounds were prepared by dissolution to a final concentration of 20 mg/ml in dimethyl sulfoxide (DMSO), diluted in PBS to 2 mg/ml, and briefly sonicated prior to use. The Rg coated wells were preincubated at room temperature for 15 minutes with the inhibitor, and 200,000 cells were added to yield the final indicated inhibitor concentration in 160 ul of PBS. The data is obtained as percent inhibition of specific binding: [formula] and a plot of dose vs. percent inhibition of Rg binding is generated in which IC50 (μM) is calculated and reported in Table 1.

In test [3] the test system is rats. As to the kind of experiment: Reverse passive Arthus reaction (RPA) in rats. Type of test: in vivo, Male Sprague Dawley rats. The conditions noted are these: 3 mg single dose IV, 4 hours; for RPA MPO % Inhib.: myeloperoxidase; for RPA VP % Inhib.: vascular permeability. An excerpt: 3. Reverse Passive Arthus Reaction in Rats
The reverse passive Arthus reaction in rats is a modification of the method by Mulligan et al., as described in J. Clin. Invest. (1991) 88: 1396-1406. This is an experimental model in which the interaction of antigen-antibodycomplexes and complement leads to a severe vasculitis that is associated with edema, induration, erythema and hemorrhage. The interaction between the antigen-antibody complexes and complement leads to a localized influx of neutrophils. These neutrophils release a variety of mediators that are associated with tissue damage and vascular permeability. The localized inflammatory reaction is measured using different techniques i.e., vascular permeability and neutrophil influx which is evaluated both biochemically and microscopically.
Male Sprague Dawley specific pathogen-free rats with jugular vein cannulae (280-320 g, Hill Top Labs, Pa.) are used in these studies. Animals are acclimated for at least 1 day and individually housed in stainless steel cages. The dorsal region of the rats is closely clipped 2 days prior to the experiments and divided into 4 sites on each side of the midline. Prior to all injections the rats are sedated with 0.4 ml per 300 gm rat of ketamine/rompun [1000 mg (10 ml) of ketamine HCL is mixed with 40 mg (2.0 ml) Rompun] administered IP and or inhalation anesthesia with metafane (methoxyflurane).
Bovin Serum Albumin (BSA) and rabbit polyclonal IgG rich in anti-BSA are purchased from Sigma Chemical Co. (St. Louis, Mo.). Radiolabelled ^125 I-BSA (spAct 1-5 μCi/μg) is purchased from Dupont NEN (Boston, Mass.).
Each rat is administered intradermal (ID) injection of (0.4 mg, 0.6 mg and 0.8 mg) anti-BSA in a volume of 100 μl per injection in normal saline. The ID injections are randomized near the mid dorsal region on both sides of the back bone. Immediately after the ID injections of the anti-BSA, the rats are administered intravenous (IV) injections of BSA (10 mg in 1.0 ml) in normal saline containing ^125 I labeled BSA (1 μCi/ml BSA or 5.0 μCi/kg body wt) for quantification of dermal vascular injury. Anti-inflammatory agents such as inhibitors of adhesion molecules of the present invention are administered IV at a single dose of 3 mg immediately after BSA. Four (4) hours after the IV injection of BSA, the rats are anesthetized with metafane and 2 to 3 ml of blood is withdrawn via the cannula into an anticoagulant containing (EDTA or Heparin) tube and plasma separated and saved for neutrophil and albumin quantitation. The rats are killed and the skin surrounding the injection site (15 mm diameter) is punched out and weighed. The skin samples and a fixed volume of plasma (0.1 to 1.0 ml) is analyzed in a gamma-counter for ^125 I content. Skin samples from the contralateral side are processed and analyzed for myeloperoxidase activity (MPO) as a measure of neutrophil accumulation. As needed, samples are also processed for histological evaluation of the reacted sites.
Vascular Permeability (VP)
The calculation of the plasma protein exudation into skin is made by determining the radioactivity in the tissue and relating this to the level of radioactive albumin in the blood at the time of sacrifice. […] [formula]
Percent inhibition of the test compound at 3 mg was determined as follows: [formula] Myeloperoxidase (MPO)
MPO is located in the azurophil granules of polymorphonuclear leukocytes (PMN). Because of its abundance in these cells (5% dry weight), this enzyme is used as a marker for tissue neutrophil content. For tissue MPO content, the method of Bradley, et al., was used as described in J. Invest. Dermatol. (1982) 78: 206-209. Biopsies from each treatment group were placed in plastic tubes (15×100 mm) containing 10 ml of 0.5% hexadecyltrimethylammonium bromide (HTAB) in 0.05M potassium phosphate buffer pH 6.0. The tissue was then homogenized with a Brinkmann Polytron homogenizer (10s). […]

T1 sequence (P16109 with tags, fused parts or gaps limits assumed): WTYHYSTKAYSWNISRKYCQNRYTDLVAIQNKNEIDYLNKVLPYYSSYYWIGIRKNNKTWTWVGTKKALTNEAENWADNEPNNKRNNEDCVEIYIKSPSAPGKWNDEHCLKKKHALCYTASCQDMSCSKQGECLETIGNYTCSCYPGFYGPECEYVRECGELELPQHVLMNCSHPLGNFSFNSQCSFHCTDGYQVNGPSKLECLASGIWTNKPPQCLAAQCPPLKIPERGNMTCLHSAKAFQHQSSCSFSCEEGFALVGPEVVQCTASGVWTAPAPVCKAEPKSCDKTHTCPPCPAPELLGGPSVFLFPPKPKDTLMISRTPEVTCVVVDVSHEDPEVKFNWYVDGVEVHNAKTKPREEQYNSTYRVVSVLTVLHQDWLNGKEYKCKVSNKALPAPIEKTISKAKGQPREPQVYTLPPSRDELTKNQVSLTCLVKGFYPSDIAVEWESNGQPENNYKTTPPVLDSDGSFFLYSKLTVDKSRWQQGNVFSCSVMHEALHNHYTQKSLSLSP
T2 sequence (P16109 with tags, fused parts or gaps limits assumed): as above

With `CCCCCCCCCCCCC/C=C/[C@@H](OC(=O)c1ccccc1)[C@H](CO[C@H]1O[C@H](COS(=O)(=O)O)[C@H](OS(=O)(=O)O)[C@H](OC(=O)c2ccccc2)[C@H]1OC(=O)c1ccccc1)NC(=O)CCCCCCCCCCCCCCC` [Example 1, (2S,3R,4E)-3-Benzoyloxy-2-hexadecanoylamino-1-[2,3-di-O-benzoyl-4,6-di-O-(sodiumoxysulfonyl)-α-D-galactopyranosyloxy]-4-octadecene], the pIC50 (usually the IC50 on a negative log10 scale, so that one unit is a factor of ten) in test [1] was 6.52. This compound also had a pIC50 in test [2] of 5.08. Further, in test [3], the “RPA MPO % Inhib.” value is on record as 97% and the “RPA VP % Inhib.” value is listed as 68%.
Regarding `CCCCCCCCCCCCC/C=C/[C@@H](O)[C@H](CO[C@H]1O[C@H](COS(=O)(=O)O)[C@H](OS(=O)(=O)O)[C@H](O)[C@H]1O)NC(=O)CCCCCCCCCCCCCCC` [Example 2, (2S,3R,4E)-3-Hydroxy-2-hexadecanoylamino-1-[4,6-di-O-(sodiumoxysulfonyl)-α-D-galactopyranosyloxy]-4-octadecene], the pIC50 is 6.70 in test [1] and 4.77 in test [2]. The “RPA MPO % Inhib.” value in test [3] came out at 0%. Also, the “RPA VP % Inhib.” value in test [3] is on record as 14%.
Take `CCCCCCCC/C=C\CCCCCCCCCCCCCC(=O)N[C@@H](CO[C@H]1O[C@H](COS(=O)(=O)O)[C@H](OS(=O)(=O)O)[C@H](O)[C@H]1O)[C@H](O)/C=C/CCCCCCCCCCCCC` [Example 4, (2S,3R,4E)-3-Hydroxy-2-(cis-15-tetracosenoylamino)-1-[4,6-di-O-(sodiumoxysulfonyl)-α-D-galactopyranosyloxy]-4-octadecene]: the pIC50 was 5.05 in test [1] and 5.10 in test [2].
`CCCCCCCCCCCCC/C=C/[C@@H](OC(=O)c1ccccc1)[C@H](CO[C@H]1O[C@H](COS(=O)(=O)O)[C@@H](OS(=O)(=O)O)[C@H](OC(=O)c2ccccc2)[C@H]1OC(=O)c1ccccc1)NC(=O)CCCCCCCCCCCCCCC` [Example 7, (2S,3R,4E)-3-Benzoyloxy-2-hexadecanoylamino-1-[-2,3-di-O-benzoyl-4,6-di-O-(sodiumoxysulfonyl)-α-D-glucopyranosyloxy]-4-octadecene] showed a pIC50 in test [1] of about 6.40. The compound further gave a pIC50 in test [2] of 4.96. Further, in test [3], the “RPA MPO % Inhib.” value turned out to be 97% and the “RPA VP % Inhib.” value worked out at 88%.
In test [1], `CCCCCC/C=C/[C@@H](OC(=O)c1ccccc1)[C@H](CO[C@H]1O[C@H](COS(=O)(=O)O)[C@H](OS(=O)(=O)O)[C@H](OC(=O)c2ccccc2)[C@H]1OC(=O)c1ccccc1)NC(=O)CCCCC` [Example 10, (2S,3R,4E)-1-[2,3-di-O-benzoyl-4,6-Di-O-(sodiumoxysulfonyl)-α-D-galactopyranosyloxy]-3-benzoyloxy-2-hexanoylamino-4-undecene] gave a pIC50 of under 5.21. The same compound showed a pIC50 in test [2] of 5.10. In test [3], the “RPA MPO % Inhib.” value was 71.6% and the “RPA VP % Inhib.” value was 11%.
As for `CCCCCCCCCCCCC/C=C/[C@@H](OC(=O)c1ccccc1)[C@H](CO[C@H]1O[C@H](COS(=O)(=O)O)[C@H](OS(=O)(=O)O)[C@H](OCc2ccccc2)[C@H]1OCc1ccccc1)NC(=O)CCCCCCCCCCCCCCC` [Example 11, (2S,3R,4E)-2-Hexadecanoylamino-3-benzoyloxy-1-[2,3-di-O-benzyl-4,6-di-O-(sodiumoxysulfonyl)-α-D-galactopyranosyloxy]-4-octadecene], the pIC50 is 5.77 in test [1] and 5.05 in test [2]. In test [3], the “RPA MPO % Inhib.” value is 53.7%. Moreover, the “RPA VP % Inhib.” value in test [3] came to 32%.
In test [1], `CCCCCCCCCCCCC/C=C/[C@@H](OC(=O)c1ccccc1)[C@H](CO[C@H]1O[C@H](COS(=O)(=O)O)[C@H](O)[C@H](O)[C@H]1OS(=O)(=O)O)NC(=O)CCCCCCCCCCCCCCC` [Example 15, (2S,3R,4E)-3-Benzoyloxy-2-hexadecanoylamino-1-[2,6-di-O-(sodiumoxysulfonyl)-α-D-galactopyranosyloxy]-4-octadecene] gave a negative logarithm of the IC50 (pIC50) of 5.66. The compound further showed a pIC50 in test [2] of 5.28. Also, in test [3], the “RPA MPO % Inhib.” value is recorded as 0% and the “RPA VP % Inhib.” value worked out at 50%.
